Experimental data as given in publication PMC5193068, “Application of Mice Humanized for CYP2D6 to the Study of Tamoxifen Metabolism and Drug–Drug Interaction with Antidepressants” (Drug Metabolism and Disposition, 2017).
pKi: −log10 of the molar value. Several values for one entry are separate records, joined by “and”; a condition that tells them apart may be missing. Equal entries are not always repeated. Where two headings read alike, the source gives them in different places.

Assays:
[1] = target: T1, CYP2D6 (Homo sapiens, UniProt P10635); experiment: biochemical
Method: (§1) All in vitro analyses were carried out in 100 mM potassium phosphate buffer, pH 7.4, containing 3.3 mM MgCl2, with agitation at 400 rpm at 37°C on a thermoshaker. All samples were handled in amber tubes under conditions of subdued light for the duration of the procedure. […] All subsequent assays were carried out under the same conditions, irrespective of the microsome source, with 5 µM N-desmethyltamoxifen (NDT) as substrate. […] Solvent (methanol) concentrations were 0.2% or lower in all incubations.
(§2) Spearman’s rank correlations and inhibition parameters of ADs were calculated using GraphPad Prism software (version 6; GraphPad Inc., La Jolla, CA).

[2] = system: E0771 cells; experiment: Estradiol dependence of E0771 cell growth in vitro; format: cell-based, mouse; settings: Supplemental Fig. 2
[3] = Preliminary single oral dose of tamoxifen in hCYP2D6 mice, blood metabolite concentrations; format: in vivo; settings: single 15-mg/kg oral dose of tamoxifen; for Cmax: hCYP2D6 (CYP2D6-humanized mouse line), mouse, blood, preliminary, data not shown
[4] = set-up: method as in Chang et al., 2016; settings: hPXR/hCAR/h3A4/3A7/2D6 mice, single dose of 20 mg/kg tamoxifen; ref Chang et al., 2016; cited from earlier work
[5] = system: estrogen receptor (ER); set-up: method as in Johnson et al., 2004; settings: ref Johnson et al., 2004; cited from earlier work
[6] = target: T1, CYP2D6; settings: female, hCYP2D6 (mice humanized for CYP2D6), mouse, in vivo
Method: All animal work was carried out on 8- to 12-week-old female mice. […] NDT was suspended in corn oil at 2 mg/ml for oral administration at 10 mg/kg (5 µl/g body weight). For sample collection for pharmacokinetic (PK) analysis, 10 µl whole blood was withdrawn from the tail vein at the indicated time points. Samples were immediately added to a tube containing heparin solution (10 µl, 15 IU/ml) and stored at −20°C until processing.
In vivo PK samples were thawed by the addition of 70 µl acetonitrile containing the internal standard (tamoxifen-d5 at 0.2 µg/ml). After incubation on ice for 10 minutes, in vivo and in vitro samples were vortexed (5 seconds) and centrifuged for 10 minutes at 16,000g. The supernatant was added to 96-well plates for liquid chromatography (LC)–tandem mass spectrometry (MS/MS).
Analysis of in vitro incubation and in vivo blood PK samples was carried out on a Waters Acquity ultra-performance LC system and a Micromass Quattro Premier mass spectrometer (both Micromass, Manchester, UK). […] Acquired data were analyzed in QuanLynx (Waters, Milford, MA) relative to analyte standard curves spanning the range of concentrations under study.
Plasma levels of both of these compounds, and of endoxifen, were monitored over the following 48-hour period.

[7] = Preliminary tolerability of single doses of NDT in mice; format: in vivo; settings: single doses of NDT required to achieve about 200 ng/ml, data not shown
[8] = system: CYP2C8; experiment: Correlation of NDT hydroxylation with P450 probe substrate metabolism in panel of 13 HLMs (2C8); format: in vitro ADME, human; settings: 2C8, Paclitaxel 6α-hydroxylation
Method: as §1, §2

[9] = system: CYP1A2; experiment: Correlation of NDT hydroxylation with P450 probe substrate metabolism in panel of 13 HLMs (1A2); format: in vitro ADME, human; settings: 1A2, Phenacetin O-deethylation
Method: as §1, §2

[10] = system: CYP2C9; experiment: Correlation of NDT hydroxylation with P450 probe substrate metabolism in panel of 13 HLMs (2C9); format: in vitro ADME, human; settings: 2C9, Diclofenac 4′-hydroxylation
Method: (§3) All in vitro analyses were carried out in 100 mM potassium phosphate buffer, pH 7.4, containing 3.3 mM MgCl2, with agitation at 400 rpm at 37°C on a thermoshaker. All samples were handled in amber tubes under conditions of subdued light for the duration of the procedure. […] Assays to determine the apparent kinetic parameters of endoxifen formation in hCYP2D6 mouse liver microsomes (MLMs) were performed in triplicate under conditions of linearity for time (6 minutes) and hCYP2D6 protein (0.0625 mg/ml). All subsequent assays were carried out under the same conditions, irrespective of the microsome source, with 5 µM N-desmethyltamoxifen (NDT) as substrate. […] Solvent (methanol) concentrations were 0.2% or lower in all incubations.
as §2

[11] = 2013, Jager et al., 2014, cited from earlier work
[12] = system: CYP2A6; experiment: Correlation of NDT hydroxylation with P450 probe substrate metabolism in panel of 13 HLMs (2A6); format: in vitro ADME, human; settings: 2A6, Coumarin 7-hydroxylation
Method: as §1, §2

[13] = system: CYP3A4; experiment: Correlation of NDT hydroxylation with P450 probe substrate metabolism in panel of 13 HLMs (3A4); format: in vitro ADME, human; settings: 3A4, Testosterone 6β-hydroxylation
Method: as §1, §2

[14] = target: T1, CYP2D6; experiment: Apparent kinetic parameters of endoxifen formation from NDT in hCYP2D6 mouse liver microsomes; format: in vitro ADME; set-up: Assays to determine the apparent kinetic parameters of endoxifen formation in hCYP2D6 mouse liver microsomes (MLMs) were performed in triplicate; tissue Taconic (animals); host or cells: liver microsomes pooled from four hCYP2D6 (CYP2D6-humanized, murine Cyp2d deleted) mice; settings: hCYP2D6 MLMs 0.0625 mg/ml, 6 min, substrate inhibition model
Method: as §3, §2

[15] = system: CYP2B6; experiment: Correlation of NDT hydroxylation with P450 probe substrate metabolism in panel of 13 HLMs (2B6); format: in vitro ADME, human; settings: 2B6, S-mephenytoin N-demethylation
Method: as §1, §2

[16] = Endoxifen formation from NDT in Cyp2dKO mouse liver microsomes; format: in vitro ADME; settings: 5 µM NDT as substrate
Method: as §1

[17] = system: CYP2E1; experiment: Correlation of NDT hydroxylation with P450 probe substrate metabolism in panel of 13 HLMs (2E1); format: in vitro ADME, human; settings: 2E1, Chlorzoxazone 6-hydroxylation
Method: as §3, §2

[18] = target: T1, CYP2D6; experiment: Correlation of NDT hydroxylation with P450 probe substrate metabolism in panel of 13 HLMs (2D6); format: in vitro ADME; set-up: Assays to determine the apparent kinetic parameters of endoxifen formation in hCYP2D6 mouse liver microsomes (MLMs) were performed in triplicate; tissue Taconic (animals); host or cells: liver microsomes pooled from four hCYP2D6 (CYP2D6-humanized, murine Cyp2d deleted) mice; settings: 2D6, Bufuralol 1′-hydroxylation
Method: as §3, §2

[19] = system: CYP2C19; experiment: Correlation of NDT hydroxylation with P450 probe substrate metabolism in panel of 13 HLMs (2C19); format: in vitro ADME, human; settings: 2C19, S-mephenytoin 4′-hydroxylation
Method: as §3, §2

[20] = target: T1, CYP2D6; set-up: Assays to determine the apparent kinetic parameters of endoxifen formation in hCYP2D6 mouse liver microsomes (MLMs) were performed in triplicate; tissue Taconic (animals); host or cells: liver microsomes pooled from four hCYP2D6 (CYP2D6-humanized, murine Cyp2d deleted) mice; method as in Desta et al. (2004); settings: two individual HLM preparations; ref Desta et al. (2004); read-out: Km (endoxifen formation); cited from earlier work
[21] = set-up: method as in gsk-clinicalstudyregister.com study 29060/474; settings: patients receiving 40 mg/d paroxetine; ref gsk-clinicalstudyregister.com study 29060/474; cited from earlier work
[22] = target: T1, CYP2D6; settings: read-out: Ki for inhibition of dextromethorphan O-demethylation; HLMs; ref Bertelsen et al. (2003); cited from earlier work
[23] = system: murine plasma proteins; set-up: method as in van Harten, 1993; Qin et al., 2016; settings: mouse plasma; ref van Harten, 1993; Qin et al., 2016; cited from earlier work

T1 sequence (P10635 whole entry): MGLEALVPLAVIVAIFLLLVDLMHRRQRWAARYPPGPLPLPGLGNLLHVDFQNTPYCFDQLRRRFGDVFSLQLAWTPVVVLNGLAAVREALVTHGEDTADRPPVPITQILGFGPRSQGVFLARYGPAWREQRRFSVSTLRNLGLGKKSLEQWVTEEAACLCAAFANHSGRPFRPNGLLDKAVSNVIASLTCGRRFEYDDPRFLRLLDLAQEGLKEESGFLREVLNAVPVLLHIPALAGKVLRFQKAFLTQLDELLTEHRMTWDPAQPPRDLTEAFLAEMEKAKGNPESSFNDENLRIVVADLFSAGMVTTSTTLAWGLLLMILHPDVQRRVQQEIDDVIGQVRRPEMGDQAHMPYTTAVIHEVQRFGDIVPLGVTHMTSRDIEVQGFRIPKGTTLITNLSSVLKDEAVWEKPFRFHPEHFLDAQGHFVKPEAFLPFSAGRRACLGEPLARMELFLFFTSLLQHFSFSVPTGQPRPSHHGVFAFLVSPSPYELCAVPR

## CN(C)CCC=C1c2ccccc2CCc2ccccc21 [amitriptyline]
[1]
  pKi: 6.14

## C[C@]12CC[C@@H]3c4ccc(O)cc4CC[C@H]3[C@@H]1CC[C@@H]2O [estradiol]
[2]
  dependence of E0771 cell growth on estradiol: no dependence whatsoever

## CC/C(=C(\c1ccc(O)cc1)c1ccc(OCCN(C)C)cc1)c1ccccc1 [4-HT, 4-hydroxytamoxifen]
[3]
  Cmax: 235 ng/mL
  blood concentration of 4-HT relative to NDT: 2.7 fold
[4]
  4-HT levels relative to NDT: 5.4 fold
  Cmax: 248 ng/mL
[5]
  potency as estrogen receptor (ER) antagonist relative to the parent compound (tamoxifen): up to 100 times

## CC/C(=C(\c1ccc(O)cc1)c1ccc(OCCNC)cc1)c1ccccc1 [endoxifen, 4-hydroxy-N-desmethyltamoxifen]
[6]
  endoxifen levels in hCYP2D6 mice relative to human subjects: 2.5-13 fold
[5]
  potency as estrogen receptor (ER) antagonist relative to the parent compound (tamoxifen): up to 100 times

## CC/C(=C(\c1ccccc1)c1ccc(OCCNC)cc1)c1ccccc1 [NDT, N-desmethyltamoxifen]
[7]
  tolerability of single doses: not well tolerated by all animals
[8]
  SRCC with NDT Hydroxylation: 0.380
[9]
  SRCC with NDT Hydroxylation: −0.289
[10]
  SRCC with NDT Hydroxylation: 0.526
[11]; patients on tamoxifen, ref Stearns et al., 2003, Madlensky et al., 2011, Lien et al.
  mean steady-state concentration in patient serum: approximately 200 ng/ml
[11]; patients receiving 20 mg tamoxifen per day, ref Lien et al.
  average blood plasma steady-state Cmax: approximately 200 ng/ml
[12]
  SRCC with NDT Hydroxylation: 0.161
[13]
  SRCC with NDT Hydroxylation: −0.005
[14]
  KS1 (apparent, endoxifen formation from NDT): 5.1 ± 0.4 µM
  KS2 (apparent, endoxifen formation from NDT): 3.9 ± 0.3 µM
[3]
  Cmax: 86 ng/mL
[15]
  SRCC with NDT Hydroxylation: 0.572
[16]
  endoxifen formation by Cyp2dKO liver microsomes: did not produce detectable levels
[4]
  Cmax: 46 ng/mL
[17]
  SRCC with NDT Hydroxylation: 0.311
[18]
  SRCC with NDT Hydroxylation: 0.698
[19]
  SRCC with NDT Hydroxylation: −0.220
[20]
  Km: 4.5 µM and 5.9 µM

## Fc1ccc([C@@H]2CCNC[C@H]2COc2ccc3c(c2)OCO3)cc1 [paroxetine]
[21]
  steady-state Cmax: approximately 150 ng/ml
[22]
  pKi: 6.44
[23]
  binding with murine plasma proteins: > 96%
